Source: patent US20230137092A1, “Composition and Method for the Treatment and Prevention of Cardiac, Pulmonary, Dermal, and Renal Fibrosis” (EMERALD HEALTH PHARMACEUTICALS INC., priority 2020, published 2023)

How the values were obtained:
NFAT = assay: Gal4-NFAT / Gal4-Luc reporter assay in hICF; assay type: cell-based, human; details: hICF transfected with Gal4-Luc and Gal4-NFAT, stimulated 6 hours
Experimental: hICF cells were transiently transfected for 24 hours with the Gal4-Luc reporter plasmid (which includes five Gal4 DNA binding sites fused to the luciferase gene) and the Gal4-NFAT1-415plasmid for 24 hours using Roti-Fect (Carl Roth GmbH & Co. KG, Karlsruhe, Germany). Then cells were stimulated for 6 hours and luciferase activity in the cell lysates was measured. The specific transactivation expressed as a percentage of activation relative to control. Compound of Formula (VIII) inhibited Ang II-induced NFAT activation (FIG. 16B).

[1] = system: Ang II-induced dermal fibrosis; assay: Ang II-induced dermal fibrosis, preventive model, Sirius Red; assay type: in vivo, mouse; details: Ang II 1.0 mg kg^- min^- two weeks, 20 mg/kg oral gavage
Experimental: The local renin angiotensin system exists in almost all organs, including skin. Ang II induces fibrosis in the skin via accumulation of activated fibroblasts. Dermal fibrosis was induced in mice by infusion of Ang II (1.0 mg kg^− min^−) for two weeks. The treatment with the compound of Formula (VIII) by oral gavage was the same as describe in Example 2. After two weeks of treatment, the mice were sacrificed under ether anesthesia. Skin samples were collected and fixed in 4% paraformaldehyde and embedded in paraffin. Skin sections (5 μm) were stained with Sirius Red for evaluation of fibrosis. Subcutaneous Ang II infusion induced a significant increase of collagen content and in the mice treated with compound, the induction of fibrosis in the skin is prevented (FIG. 11).

## C=C(C)C1CCC(C)=C[C@H]1C1=C(O)C(=O)C(CCCCC)=C(NCc2ccccc2)C1=O (some centres unmarked) [Formula (VIII)]
NFAT
  Ang II-induced NFAT activation (luciferase): inhibited
[1]
  induction of fibrosis in the skin (collagen content): prevented
